Experimental data from patent US8815835B2, “9-aminonoscapine and its use in treating cancers, including drug-resistant cancers” (Emory University, priority 2008, dated 2014).

Tests used:
[1] = system: 1A9 (ovarian cancer cells); assay: Cell proliferation inhibition, 1A9; type: cell-based; settings: 1A9, in words
[2] = system: human lymphoblastoid cells CEM; assay: Cell proliferation inhibition, CEM; type: cell-based; settings: in words
[3] = system: teniposide-resistant variant CEM/VM-1-5; assay: Cell proliferation inhibition, CEM/VM-1-5; type: cell-based, human; settings: CEM/VM-1-5, in words
tubulin [4] = assay: Sedimentation assay of tubulin polymerization (polymer mass); type: biochemical; settings: for Average % increase in polymer level: tubulin 10 μM, 37° C., 30 min
Experimental: Tubulin solution was centrifuged for 10 min at 80000 g at 4° C. Soluble tubulin was measured by Bradford method. Tubulin (10 μM) was mixed with different concentrations of 9-amino-Noscapine ([…]) in the assembly buffer (100 mM PIPES at pH 6.8, 3 mM MgSO4, 1 mM EGTA, 1 mM GTP, and 1 M sodium glutamate). A reaction control with DMSO was also set up.
Polymerization was carried on by maintaining the temperature at 37° C. in the water bath for 30 min. After polymerization, the reaction mixture was centrifuged at 120000 g at 30° C. for 30 min. The soluble tubulin content was measured by Bradford method. Polymer mass of tubulin was found out by deducting soluble tubulin mass from the total tubulin content.
Tubulin was polymerized in presence or absence of 9-aminonoscapine to observe its effect on polymer formation. Polymer mass of tubulin was measured by sedimentation assay. Before polymerization soluble tubulin comprises total tubulin. Total tubulin content was measured by measuring soluble tubulin by Bradford method. After polymerization, soluble tubulin content was measured and deducted from total tubulin content to find out the polymeric tubulin level.

[5] = system: paclitaxel-resistant variant (1A9/PTX22); assay: Cell proliferation inhibition, 1A9/PTX22; type: cell-based; settings: 1A9/PTX22, in words
[6] = system: vinblastine-resistant variant CEM/VLB100; assay: Cell proliferation inhibition, CEM/VLB100; type: cell-based, human; settings: CEM/VLB100, in words
tubulin [7] = assay: Tubulin binding assay (fluorescence quenching, dissociation constant); settings: 2 μM tubulin, 25 mM PIPES pH 6.8, 30 min at 25° C.; double reciprocal plot; mean±SD, four experiments
Experimental: Noscapine and 9-aminonoscapine (0-150 μM) were incubated with 2 μM tubulin in 25 mM PIPES, pH 6.8, 3 mM MgSO4, and 1 mM EGTA for 30 min at 25° C. The fluorescence intensities of tubulin in the absence and presence of different concentrations of the agents were monitored in a JASCO FP-6500 spectrofluorometer (JASCO, Tokyo, Japan) using a cuvette of 0.3-cm path length.
The excitation wavelength was 295 nm. The inner filter effects were corrected using a formula: […],
where Aex and Aem are the absorbance at the excitation and emission wavelengths.
The dissociation constant (Kd) was estimated using the following equation. ΔF=ΔFmaxL/(Kd+L)
where, ΔF is change in the fluorescence intensity of the tubulin upon binding to noscapine or 9-aminonoscapine, ΔFmax is the maximum change in the fluorescence intensity of the protein when it is fully bound with noscapine or 9-aminonoscapine, and L is the concentration of the ligand.
The ΔFmax value was calculated by the GraphPad Prism 5 software. ΔF was calculated by subtracting the fluorescence intensity of tubulin in the absence of noscapine or 9-aminonoscapine from the fluorescence intensity of tubulin in the presence of different concentrations of noscapine or 9-aminonoscapine.
The data were statistically analyzed and curve fitted using GraphPad Prism 5 software. […]

[8] = system: panel of 60 human tumor cell lines; assay: NCI 60-tumor cell line panel, Sulforhodamine B proliferation assay; type: cell-based; settings: 48 h treatment, in words; IC50 values only in FIG. 2
Experimental: The panel of 60 human tumor cell lines is organized into subpanels representing leukemia, non-small cell lung, colon, CNS, melanoma, renal, ovarian, breast and prostrate cancer lines. Cells were treated with 9-aminonoscapine at increasing gradient concentrations for 48 h. The IC50 values, which stand for the drug concentration needed to prevent cell proliferation by 50% was then measured using an in vitro Sulforhodamine B assay. Panels show bar-graphically the comparison of IC50 values of 9-aminonoscapine (black bars) for cancer cell lines of various tissue origins.

| Kd (tubulin [7]) [µM] | SMILES | inhibition of cell proliferation [1] | inhibition of cell proliferation [2] | inhibition of cell proliferation [3] | Average % increase in polymer level (tubulin [4]; 25 μM 9-aminonoscapine) [%] | Average % increase in polymer level (tubulin [4]; 50 μM 9-aminonoscapine) [%] | Average % increase in polymer level (tubulin [4]; 100 μM 9-aminonoscapine) [%] | Average % increase in polymer level (tubulin [4]; 100 μM 9-aminonoscapine, listed as 9-amino-noscapine) [%] | effect on the assembly of tubulin into microtubules in vitro (tubulin [4]; in words) | inhibition of cell proliferation [5] | inhibition of cell proliferation [6] | proliferation of various human cancer cells [8] |
| --- | --- | --- | --- | --- | --- | --- | --- | --- | --- | --- | --- | --- |
| 14 ± 1 | COc1ccc2c(c1OC)C(=O)O[C@@H]2[C@H]1c2c(c(N)c3c(c2OC)OCO3)CCN1C [9-aminonoscapine, (S)-6,7-dimethoxy-3-((R)-4-methoxy-6-methyl-9-amino-5,6,7,8-tetrahydro-[1,3]dioxolo[4,5-g]isoquinolin-5-yl)isobenzofuran-1(3H)-one] | effectively inhibits cell proliferation | effectively inhibits cell proliferation | effectively inhibits cell proliferation | 2.8 ± 0.98 | 3.2 ± 3.6 | 6.3 ± 3.8 | 6.3±3.8 | negligible effect | effectively inhibits cell proliferation | effectively inhibits cell proliferation | inhibits the proliferation |
| 152 ± 1 | COc1ccc2c(c1OC)C(=O)O[C@@H]2[C@H]1c2c(cc3c(c2OC)OCO3)CCN1C [noscapine, (S)-6,7-dimethoxy-3-((R)-4-methoxy-6-methyl-5,6,7,8-tetrahydro[1,3]-dioxolo-[4,5-g]isoquinolin-5-yl)isobenzo-furan-1(3H)-one] | – | – | – | – | – | – | – | – | – | – | – |
